Results as given in patent publication US20240415835A1, “COMPOSITIONS COMPRISING AN ERK INHIBITOR” (Otsuka Pharmaceutical Co., Ltd., priority 2021, published 2024).
Values after ≈ are worked out from the molar mass of the structure shown.

What was measured:
[1] = Primate study, 3-way crossover, oral administration; format: in vivo; conditions: monkeys, oral 20 mg/kg, three dosing occasions
Experimental: A total of 6 animals were used in a 3-way (2+2+2) crossover design where, on each of the three dosing occasions, 2 of the animals were administered Compound I in powder in bottle (PiB) suspension in vehicle for reconstitution (20 mg/kg), 2 of the animals were administered Compound I solid dispersion suspension (20 mg/kg) of Example 1, while another 2 animals were administered Compound I in a tablet form (20 mg/kg) of Example 2. The vehicle for reconstitution comprised Propylene Glycol USP 80.0% w/w; Ethanol USP 10.0% w/w; Vit E TPGS USP 10.0% w/w for a total of 100.0% w/w.
Dosing for this study was conducted in fasted state. […]
The animals were observed closely during the first 12 hrs after each dosing and once daily on non-dosing days. Body weights were measured and recorded prior to dosing and blood samples for pharmacokinetic profiling were taken at the pre-defined time points for all animals. […] All plasma samples from this study were analyzed by this method and plasma concentration of Compound I were expressed in terms of ng/mL.
The error bars refer to standard deviation. […] AUClast refers to the area under the concentration-time curve from dosing (time 0) to the time of the last measured concentration (24 hours).

[2] = gastric to intestinal (G-IB) transfer microcentrifuge dissolution test; format: physicochemical
Experimental: The solid dispersions described in Example 1 were evaluated in two non-sink dissolution tests to evaluate various aspects of the formulations and how they might be differentiated. The two dissolution tests that were evaluated include a gastric to intestinal (G-IB) transfer microcentrifuge dissolution test and an ultracentrifuge free-drug test.
The gastric-to-intestinal buffer (G-IB) transfer dissolution test is used to measure the supersaturation of drug above the solubility of bulk drug when dosed as a powder, first into media at a lower pH value to imitate a fasted stomach. After 30 minutes of exposure to the gastric media, the samples are transferred into the higher pH media as an imitation of the intestine. The drug concentrations measured in this test are a composite of free drug, drug in micelles, and drug suspended in solution as drug/polymer colloids.
The G-IB dissolution test is performed the same way, but with a 30 minute gastric exposure prior to transferring into the intestinal media. The intestinal media for the G-IB dissolution test is doubly concentrated in terms of buffering and bile salts, so that after the gastric transfer step, the final pH is 6.5 and SIF concentration is 0.5 wt %.
The microcentrifuge dissolution test separates the precipitate (undissolved drug) and total solubilized drug. Total solubilized drug consists of three solubilized species: freely solubilized drug, drug associated with bile salt micelles, and drug associated with polymer (drug-polymer colloids). These three species have different activities in vivo and differentiate formulations. The freely solubilized drug is the smallest species and is the most readily available for absorption. Freely solubilized drug can cross the unstirred mucous boundary layer and be absorbed into the blood through the epithelium. The drug associated with micelles diffuse across the unstirred mucous boundary layer and resupply free drug as it is absorbed. Finally, the drug-polymer colloids also resupply free drug as it is absorbed and can have a contribution to effective diffusion rate. These colloids can be important depending on the rate-limiting step for absorption.
A solid dispersion comprising Compound I: HPMCAS in a ratio of 1:2 (“33.3% HPMCAS”) was prepared from 2.7 grams of the free base hydrate crystalline form B of Compound I and 5.3 grams of HPMCAS (Shin Etsu, L grade, F particle size (≤10 microns particle size)), using a similar procedure of Example 1. Briefly, 2 mg test compound/mL in 0.9 mL gastric buffer was transferred to a final dose of 1 mg/mL in 1.8 mL of 0.5% SIF in PBS at pH 6.5 at room temperature to provide 1.8 mL total volume test solution. The samples were centrifuged at 15,800 g for 1 minute. At specified timepoint, 50 μL aliquot samples were diluted 6× with 50/50 acetonitrile/water and assayed by HPLC.
The solid dispersion was evaluated together with the 25% Compound I: HPMCAS solid dispersion (“25% HPMCAS”) and 95.3% Compound I (freebase hydrate, “Crystalline API”), using the G-IB dissolution test described in Example 3-1.

[3] = ultracentrifuge free-drug test (drug speciation); format: physicochemical
Experimental: The ultracentrifuge free-drug analysis is used to determine the species of dissolved drug that are present for each formulation. This test is performed at several timepoints, i.e., 0, 30, 60 and 90 minutes, during the microcentrifuge test, and it consists of a centrifugation step at 300,000 g that removes any colloidal species that are present, leaving only the free drug and drug in micelle species. In combination with the microcentrifuge data, this allows for determination of free drug and colloidal content at the timepoint where both are tested.

[4] = intestinal buffer, 0.5% SIF in PBS pH 6.5, 1 mg/mL

**Q.** For COc1cc(F)cc([C@@H](CO)NC(=O)[C@@H](C)N2Cc3ccc(-c4nc(NC5CCOCC5)ncc4Cl)cc3C2=O)c1 [Compound I, (2R)-2-(6-{5-chloro-2-[(tetrahydro-2H-pyran-4-yl)amino]pyrimidin-4-yl}-1-oxo-2,3-dihydro-1H-isoindol-2-yl)-N-[(S)-1-(3-fluoro-5-methoxyphenyl)-2-hydroxyethyl]propanamide], which “clinical signs as a result of treatment” value [1] is on record?
**A.** no clinical signs

**Q.** For COc1cc(F)cc([C@@H](CO)NC(=O)[C@@H](C)N2Cc3ccc(-c4nc(NC5CCOCC5)ncc4Cl)cc3C2=O)c1 [Crystalline API], which CmaxGB ([2]; gastric buffer, 2 mg/mL, room temperature) is on record?
**A.** 20000 ng/mL

**Q.** What about the C1200 ([2]; intestinal buffer, 0.5% SIF in PBS pH 6.5) of the same molecule?
**A.** 21 µg/mL

**Q.** What about the “AUC4-90 IB” value [2, 4] of the same molecule?
**A.** 1,610 min*μg/mL

**Q.** What about the “C90 IB” value [2, 4] of the same molecule?
**A.** 21 µg/mL

**Q.** And the “Cmax90 IB” value [2, 4]?
**A.** 21000 ng/mL

**Q.** What about the Ultra1200 ([3]; ultracentrifuge) of the same molecule?
**A.** 19 µg/mL

**Q.** And the Ultra90 ([3]; ultracentrifuge, 90 minutes)?
**A.** 21 µg/mL

**Q.** For COc1cc(F)cc([C@@H](CO)NC(=O)[C@@H](C)N2Cc3ccc(-c4nc(NC5CCOCC5)ncc4Cl)cc3C2=O)c1 [amorphous Compound I], which solubility ([3]; pH 6.5, fassgf or other biorelevant, FIG. 2 speciation data from the dissolution test) is on record?
**A.** ~15 µg/mL (≈ 25.7 µM)
